Measured values taken from patent US6797699B1, “Neuroprotective agents” (University of Southampton, priority 1997, dated 2004).

Tested on: NMDA receptor-mediated neurotoxicity in organotypic hippocampal slice cultures
Experiment: NMDA receptor-mediated neurotoxicity in organotypic hippocampal slice cultures
Format: cell-based, Wistar rat
Conditions: 300 μM throughout the experiment, PI at 24 hours
Protocol: Organotypic hippocampal slice cultures were prepared and maintained as described above. NMDA was prepared as a 50 mM stock solution in distilled water, and diluted as required in SF medium. Neurotoxicity was induced by placing cultures in SF medium containing either 10 μM or […] NMDA for 180 minutes. After this time, cultures were replated in SF-medium and maintained for 24 hours in the incubator. Either 300 μM L-ArgSp or vehicle (SF medium) was added to the culture medium pre-, during and post-NMDA exposure. Throughout the duration of the experiment, 5 μg/ml PI was included in the medium. After 24 hours, neuronal damage was determined by PI fluorescence imaging and quantified as described previously.

N=C(N)NCCCC(N)C(=O)NCCCNCCCCN [Compound A, N′-L-Arginylspermidine]
damage produced by NMDA (PI fluorescence, in words) (10 μM NMDA for 180 minutes): did not reduce the damage
damage produced by NMDA (PI fluorescence, in words) (30 μM NMDA for 180 minutes): did not reduce the damage
